Experiment [1] relates to plants grown in alkaline soil. The note with it: spraying, Non-Patent Document 1; cited from earlier work.
Experiment [2] concerns Komatsuna. In words: Komatsuna pot test: foliage application of agent, then sub-irrigation with pH 9.0 sodium carbonate/sodium hydrogencarbonate buffer, fresh weight of shoots. Type of experiment: in vivo, Komatsuna (species: Calvita). The note with it: 0.05 wt. % aqueous solution of agent on stems and leaves, 5 mL/pot, pH 9.0 buffer sub-irrigation three days after treatment, measured one week after irrigation. The procedure:
Each of the pots (1/5000 a) was filled with andosols soil, and Komatsuna (species: Calvita, product of Nohara Seed Co., Ltd.) was sown in the soil. At the 3 leaf stage, five uniform seedlings per pot were selected by cutting. An aqueous solution (0.05 wt. %) of each agent having a composition shown in Table 1 was applied to the stems and leaves of the plants in each pot (5 mL/pot). Sulfur powder (“sulfur, powder,” product of Wako Pure Chemical Industries, Ltd.) was separately used in an amount given in Table 1 for soil treatment. The same sulfur powder was employed in the following Examples. Three days after the treatment, sub-irrigation was performed with a 0.5-mol/L aqueous sodium carbonate/sodium hydrogencarbonate buffer (pH: 9.0). One week after irrigation, the fresh weight of shoots of the plants was measured so as to check the growth conditions.
In Comparative Example 1, water was employed instead of an aqueous solution of each agent.

Experiment [3] relates to Komatsuna. In words: Komatsuna grown in alkaline soil, foliage spray of agent every 2 weeks, plant height and dry weight of shoots. In kind it is in vivo, Komatsuna (Calvita). As to conditions: pH of soil 8.8, foliage spray 5 mL/pot every 2 weeks, 27 days after sowing, averaged. The procedure: Calcium carbonate was added to field soil so as to adjust the Ca content to 5 mass %, and an appropriate amount of aqueous sodium carbonate solution was added thereto, followed by sufficiently mixing, to thereby provide alkaline soil (pH: 8.8). A chemical fertilizer (base fertilizer) was added to the alkaline soil in an amount of 10 kg/10 a (as reduced to N). Each of the pots (1/5000 a) was filled with the above soil, and 10 seeds of Komatsuna (Calvita, product of Nohara Seed Co., Ltd.) were sown in the soil, followed by cultivation in a greenhouse. Ten days after, five uniform seedlings per pot were selected by cutting. After cutting, an aqueous solution (0.05 mass %) of each agent having a composition shown in Table 2 was sprayed every 2 weeks to the stems and leaves of the plants in each pot (5 mL/pot), and the pot was controlled under ordinary conditions. Twenty-seven days after sowing, the soil was washed out with water, whereby the plants were harvested. The plant height of each plant was measured. Subsequently, the plants were dried at 80° C. for 24 hours by a drier, and the dry weight of shoots of each plant was measured.
The test procedure of Example 7 was repeated, except that the amounts of ingredients were changed. […]
The test procedure of Example 7 was repeated, except that the agent was changed. […]

The subject of experiment [4] is cotton. In words: Cotton grown in alkaline soil, foliage spray of agent every 2 weeks, plant height and dry weight of shoots. Type of experiment: in vivo, cotton (species: Dwarf cotton). As to conditions: pH of soil 8.8, foliage spray 5 mL/pot every 2 weeks, sown Sep. 22, harvested November 7. The procedure: Calcium carbonate was added to field soil so as to adjust the Ca content to 5 mass %, and an appropriate amount of aqueous sodium carbonate solution was added thereto, followed by sufficiently mixing, to thereby provide alkaline soil (pH: 8.8). A chemical fertilizer (base fertilizer) was added to the alkaline soil in an amount of 10 kg/10 a (as reduced to N). Each of the pots (1/5000 a) was filled with the above soil, and 6 seeds of cotton (species: Dwarf cotton, product of Sakata Seed Co.) were sown in the soil on Sep. 22, followed by cultivation in a greenhouse. Ten days after, three uniform seedlings per pot were selected by cutting. After cutting, an aqueous solution (0.05 mass %) of each agent having a composition shown in Table 4 was sprayed every 2 weeks to the stems and leaves of the plants in each pot (5 mL/pot), and the pot was controlled under ordinary conditions. On the day of November 7, the soil was washed out with water, whereby the plants were harvested, and the plant height of each plant was measured. Subsequently, the plants were dried at 80° C. for 24 hours by a drier, and the dry weight of shoots of each plant was measured.
The test procedure of Example 13 was repeated, except that sulfur was further applied to soil treatment one day after foliage treatment with other agent ingredients.
The test procedure of Example 13 was repeated, except that the agent was changed. […]

Experiment [5] concerns corn. In words: Corn grown in alkaline soil, foliage spray of agent every 2 weeks, plant height and dry weight of shoots. The note with it: pH of soil 8.7, foliage spray 5 mL/pot every 2 weeks, sown November 15, harvested December 26. Type of experiment: in vivo, corn (species: Amai bantam 90). Here is the method: Calcium carbonate was added to field soil so as to adjust the Ca content to 5 mass %, and an appropriate amount of aqueous sodium carbonate solution was added thereto, followed by sufficiently mixing, to thereby provide alkaline soil (pH: 8.7). A chemical fertilizer (base fertilizer) was added to the alkaline soil in an amount of 10 kg/10 a (as reduced to N). Each of the pots (1/5000 a) was filled with the above soil, and 4 seeds of corn (species: Amai bantam 90, product of Tohoku Seed Co., Ltd.) were sown in the soil on November 15, followed by cultivation in a greenhouse. Twelve days after, two uniform seedlings per pot were selected by cutting. After cutting, an aqueous solution (0.05 mass %) of each agent having a composition shown in Table 6 was sprayed every 2 weeks to the stems and leaves of the plants in each pot (5 mL/pot), and the pot was controlled under ordinary conditions. On the day of December 26, the soil was washed out with water, whereby the plants were harvested, and the plant height of each plant was measured. Subsequently, the plants were dried at 80° C. for 24 hours by a drier, and the dry weight of shoots of each plant was measured.
The test procedure of Example 17 was repeated, except that application of sulfur to soil treatment and application of other agent ingredients to foliage treatment were simultaneously performed. […]

Experiment [6] concerns sunflower. In words: Sunflower grown in alkaline soil, foliage spray of agent every 2 weeks, plant height and dry weight of shoots. Type of experiment: in vivo, sunflower (Pachino-gold). As to conditions: pH of soil 8.8, foliage spray 5 mL/pot every 2 weeks, sown June 13, measured August 10. Here is the method:
Culture soil (sowing mold, product of Takii Seed Co., Ltd.; 440 mg-N/L, 390 mg-P/L, and 410 mg-K/L) and plug soil for turf were mixed at 1:1, and calcium carbonate was added to the soil mixture to a Ca concentration of 5 mass %. An appropriate amount of aqueous sodium carbonate solution was added thereto, followed by sufficiently mixing, to thereby provide alkaline soil (pH: 8.8). Each of the No. 6-pots (surface area: 177 cm^2) was filled with the above-prepared soil, and on the day of June 13, 4 seeds of sunflower (Pachino-gold, product of Takii Seed Co., Ltd.) were sown in the soil, followed by cultivation in a greenhouse. Fourteen days after, two uniform seedlings per pot were selected by cutting. After cutting, an aqueous solution (0.05 mass %) of each agent having a composition shown in Table 7 was sprayed every 2 weeks to the stems and leaves of the plants in each pot (5 mL/pot), and the pot was controlled under ordinary conditions. On the day of August 10, the plant height and the dry weight of shoots of each plant were measured.
The test procedure of Example 19 was repeated, except that application of sulfur to soil treatment and application of other agent ingredients to foliage treatment were simultaneously performed.
The test procedure of Example 19 was repeated, except that the agent was changed.

Experiment [7] relates to tomato. In words: Tomato seedlings transplanted to alkaline soil, foliage spray of agent every 2 weeks, dry weight of shoots. As to conditions: pH of soil 8.8, foliage spray 5 mL/pot every 2 weeks, transplanted June 6, harvested July 6. In kind it is in vivo, tomato (Kyoryoku Beijyu). The procedure:
Calcium carbonate was added to field soil so as to adjust the Ca content to 5 mass %, and an appropriate amount of aqueous sodium carbonate solution was added thereto, followed by sufficiently mixing, to thereby provide alkaline soil (pH: 8.8). A chemical fertilizer (base fertilizer) was added to the alkaline soil in an amount of 10 kg/10 a (as reduced to N). Each of the pots (1/5000 a) was filled with the above soil, and on the day of June 6, tomato seedlings (Kyoryoku Beijyu, product of Nohara Seed Co., Ltd.) were transplanted to the soil, followed by cultivation in a greenhouse. After transplanting, an aqueous solution (0.05 mass %) of each agent having a composition shown in Table 8 was sprayed every 2 weeks to the stems and leaves of the plants in each pot (5 mL/pot), and the pot was controlled under ordinary conditions. On the day of July 6, the soil was washed out with water, whereby the plants were harvested. Subsequently, the plants were dried at 80° C. for 24 hours by a drier, and the dry weight of shoots of each plant was measured.
The test procedure of Example 21 was repeated, except that application of sulfur to soil treatment and application of other agent ingredients to foliage treatment were simultaneously performed.
The test procedure of Example 21 was repeated, except that the agent was changed.

Experiment [8] has as its system Komatsuna. In words: Komatsuna grown in alkaline soil, agent applied to the soil surface every 2 weeks (soil treatment), plant height and dry weight of shoots. The note with it: pH of soil 8.8, applied to surface of the soil 10 mL/pot every 2 weeks, 27 days after sowing. Type of experiment: in vivo, Komatsuna (Calvita). Here is the method:
Calcium carbonate was added to field soil so as to adjust the Ca content to 5 mass %, and an appropriate amount of aqueous sodium carbonate solution was added thereto, followed by sufficiently mixing, to thereby provide alkaline soil (pH: 8.8). A chemical fertilizer (base fertilizer) was added to the alkaline soil in an amount of 10 kg/10 a (as reduced to N) Each of the pots (1/5000 a) was filled with the above soil, and 10 seeds of Komatsuna (Calvita, product of Nohara Seed Co., Ltd.) were sown in the soil, followed by cultivation in a greenhouse. Ten days after, five uniform seedlings per pot were selected by cutting. After cutting, an aqueous solution (0.05 mass %) of each agent having a composition shown in Table 9 was applied every 2 weeks to the surface of the soil in each pot (10 mL/pot), and the pot was controlled under ordinary conditions. Twenty-seven days after sowing, the soil was washed out with water, whereby the plants were harvested, and the plant height of each plant was measured. Subsequently, the plants were dried at 80° C. for 24 hours by a drier, and the dry weight of shoots of each plant was measured.
The test procedure of Example 23 was repeated, except that application of sulfur to soil treatment and application of other agent ingredients to foliage treatment were simultaneously performed.
The test procedure of Example 23 was repeated, except that the agent was changed.

Structures are written as SMILES.

For `NCC(=O)CCC(=O)O` [5-aminolevulinic acid], in experiment [1], the “Foliage yield of plants” value is listed as “prevent decrease in foliage yield”. With `Cl.NCC(=O)CCC(=O)O` [compound 2, 5-Aminolevulinic acid hydrochloride], the “Fresh weight of shoots (%)(5 plants in total, relative to treatment period)” value in experiment [2] is 55%. On to `Cl.NCC(=O)CCC(=O)O` [compound 5, 5-Aminolevulinic acid hydrochloride], for which, in experiment [3], the “Dry weight of shoots” value is 2.2 g and the “Plant height (cm)” value is listed as 11.3 cm. In the case of `O=C([O-])CN(CCN(CC(=O)[O-])CC(=O)[O-])CCN(CC(=O)[O-])CC(=O)[O-].[Fe+3].[NH4+].[NH4+]` [compound 6, Ammonium diethylenetriaminepentaacetatoferrate], in experiment [3], the “Dry weight of shoots” value came out at 2.0 g and the “Plant height (cm)” value came out at 9.8 cm.

Take `Cl.NCC(=O)CCC(=O)O` [compound 10, 5-Aminolevulinic acid hydrochloride]: in experiment [4], the “Dry weight of shoots” value is reported as 0.9 g and the “Plant height (cm)” value is 13.1 cm. Consider `Cl.NCC(=O)CCC(=O)O` [compound 14, 5-Aminolevulinic acid hydrochloride], for which, in experiment [5], the “Dry weight of shoots” value was 0.30 g and the “Plant height (cm)” value was 23.2 cm. Turning to `Cl.NCC(=O)CCC(=O)O` [compound 17, 5-Aminolevulinic acid hydrochloride], in experiment [6], the “Dry weight of shoots” value amounted to 6.8 g and the “Plant height (cm)” value amounted to 36 cm.

Turning to `Cl.NCC(=O)CCC(=O)O` [compound 20, 5-Aminolevulinic acid hydrochloride], the “Dry weight of shoots” value in experiment [7] worked out at 4.5 g. On to `Cl.NCC(=O)CCC(=O)O` [compound 23, 5-Aminolevulinic acid hydrochloride], for which, in experiment [8], the “Dry weight of shoots” value turned out to be 2.1 g and the “Plant height (cm)” value turned out to be 10.3 cm. Taken in the same sequence, the figures for `O=C([O-])CN(CCN(CC(=O)[O-])CC(=O)[O-])CCN(CC(=O)[O-])CC(=O)[O-].[Fe+3].[NH4+].[NH4+]` [compound 24, Ammonium diethylenetriaminepentaacetatoferrate] were 1.9 g and 10.1 cm.

The values above are taken from patent US20100035754A1, “AGENT FOR IMPROVING ALKALI RESISTANCE OF PLANT AND METHOD FOR IMPROVING ALKALI RESISTANCE OF PLANT” (COSMO OIL CO., LTD, priority 2007, published 2010).
